Test results published in patent US20080096850A1 (priority 2001, published 2008).

Assays:
Assay type in all cases: cell-based, Staphylococcus aureus
[1] = system: TSST-1 production by S. aureus (MN8)
[2] = system: TSST-1 production by S. aureus FRI-1187
[3] = system: TSST-1 production by S. aureus FRI-1169
S. aureus (MN8) = system: S. aureus (MN8)

Compound	ELISA: TSST-1 ng/OD unit [1] [ng/OD unit]	ELISA: TSST-1 ng/OD unit [2] [ng/OD unit]	Reduction of Toxin % [2] [%]	ELISA: TSST-1 ng/OD unit [3] [ng/OD unit]	Reduction of Toxin % [3] [%]	CFU/mL (S. aureus (MN8)) [CFU/mL]	Optical Density 600 nm (S. aureus (MN8))
Oc1c(Cl)cc(Cl)c(Cl)c1Cc1c(O)c(Cl)cc(Cl)c1Cl [Hexachlorophene, hexachlorophene]	330	–	–	–	–	–	–
Oc1cc(Cl)ccc1Oc1ccc(Cl)cc1Cl [Triclosan, triclosan]	–	95	86	40	96	–	–
4-hydroxydiphenyl methane [4-Hydroxydiphenyl-methane]	785	–	–	–	–	1.1E+08	0.581
